According to ChEMBL document CHEMBL4665667, “Lowering Lipophilicity by Adding Carbon: AzaSpiroHeptanes, a logD Lowering Twist” (ACS Med Chem Lett, 2019):

Assays:
[1] = Apparent permeability in human Caco2 cells at 10 uM; type: ADME, cell-based; settings: Caco-2
[2] = Lipophilicity, logD of compound at pH 7.4 by Shake-flask distribution coefficient method; type: physicochemical; settings: octanol/water
[3] = Intrinsic clearance in rat hepatocytes assessed per 10^6 cells; type: ADME, cell-based, Hepatocyte; settings: read-out: CLH
[4] = Intrinsic clearance in human hepatocytes assessed per 10^6 cells; type: ADME, cell-based, Hepatocyte; settings: read-out: CLH
[5] = Dissociation constant, pKa of compound; type: physicochemical
[6] = Intrinsic clearance in human liver microsomes; type: ADME, Microsome; settings: read-out: CLH
[7] = target: T1, Glucose-dependent insulinotropic receptor (Homo sapiens, UniProt Q8TDV5); assay: Agonist activity at human GPR119 expressed in HEK293 cells assessed as increase in cAMP level incubated for 45 mins by cAMP HTRF assay; type: functional, cell-based
T1 sequence (Q8TDV5 whole entry): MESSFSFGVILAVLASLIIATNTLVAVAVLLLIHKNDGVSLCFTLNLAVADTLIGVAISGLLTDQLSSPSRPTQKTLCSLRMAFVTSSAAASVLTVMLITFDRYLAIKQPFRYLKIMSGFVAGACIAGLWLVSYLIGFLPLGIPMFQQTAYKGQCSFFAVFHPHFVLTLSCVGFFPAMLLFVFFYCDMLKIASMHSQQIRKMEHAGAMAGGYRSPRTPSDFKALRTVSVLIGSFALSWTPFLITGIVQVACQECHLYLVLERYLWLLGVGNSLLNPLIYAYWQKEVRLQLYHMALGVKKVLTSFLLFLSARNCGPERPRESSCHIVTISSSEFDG

[8] = Apparent permeability across apical to basolateral side in MDCK cells incubated at 10 uM; type: ADME, cell-based, Canis lupus familiaris; settings: dog
[9] = Lipophilicity, logD of compound in octanol and buffer in pH 7.4 incubated for 30 mins under shaking condition by LC/UV analysis; type: physicochemical

Structure (SMILES) | Papp at 10 µM [1] | logD [2] | hepatocyte CLint [3] | hepatocyte CLint [4] | pKa [5] | microsomal CLint [6] | EC50 [7] | Papp A→B at 10 µM [8] | logD at 0.5 h [9]
c1nc(N[C@H]2CC[C@H](N3CC4(COC4)C3)CC2)c2c(C3CCOCC3)c[nH]c2n1 | 4.1 ×10⁻⁶ cm/s | 0.8 | 8 µL/min/1e6 cells | < 1 µL/min/1e6 cells | 8.2 | < 3 µL/min/mg | – | – | –
CC(C)(C)OC(=O)N1CC2(C1)CN(c1ncc(OCc3ccncc3C#N)cn1)C2 | – | – | – | – | – | – | 16 µM | 17 ×10⁻⁶ cm/s | 2.5
